# Source: US20120232062A1, “AZAINDAZOLES TO TREAT FLAVIVIRIDAE VIRUS INFECTION” (EIGER BIOPHARMACEUTICALS, INC., priority 2009, published 2012)
# Test system: HCV genotype 1b
# Assay: HCV 1b replicon luciferase assay
# Type: cell-based
# Conditions: Hepatitis C virus, 48 h, read-out: EC50 in the 48 hour 1b replicon assay, 48 hour
# From the text: A suitable 1b HCV RNA replicon assay uses the Huh7 cell line which contains an HCV 1b RNA replicon with a stable luciferase (LUC) reporter. This construct contains modifications that make the cell line more robust and provides stable LUC expression for antiviral screening. The LUC reporter is used as an indirect measure of HCV replication. The activity of the LUC reporter is directly proportional to HCV RNA levels and positive control antiviral compounds behave comparably using LUC endpoints. […]
# Fresh growth medium is prepared just before use. The container used in the procedure is a 10 cm diameter culture dish. HCV replicon reporter cell lines are used. Prepare complete medium: add FBS and appropriate additives as described in “Culture Media”, below. Pre-warm the medium in a 37° C. thermostat water bath. Remove the dish from a 37° C. CO2 incubator. Check the cell name and complete medium and passage number marked on the dish. Aspirate the medium carefully and add 1 ml PBS to rinse the cells. Remove and discard the solution and add 1 ml of 0.25% Trypsin/0.02% EDTA. Rinse the cells with the added Trypsin/EDTA to ensure all the cells have been rinsed. Remove the Trypsin/EDTA with a vacuum pump and incubate at 37° C. for 3-5 minutes. Examine the cell morphology under an inverted microscope to confirm that a single cell suspension is clearly visible. Add 3 ml of complete medium to the dish and suspend the cell by gentle pipetting. Count the cell numbers with a hematometer. Adjust cell density to 100 k/ml by adding appropriate volume of the complete medium. Add 100 μl of cell suspension to each well of a 96-well white plate; the cell density is thus 10 k per well. Mark the plate with cell name, passage number, seeding density, date and the name of the operator. Place the 96-well assay plate in 37° C. 5% CO2 incubator for 24 hours.
# Compounds are prepared or provided at 25 mM in 100% DMSO. This is the compound stock solution. The dilution procedure should be performed in a cell culture hood. Dispense the stock solution into the second column of a 96-well plate. Prepare 9-step (10 concentrations total), 5-fold serial dilutions by transferring 10 μA of the compound into the next well containing 40 μA of DMSO. Repeat for all compounds. Aspirate 2 μl of the above compound solution from each well and add into 198 μl complete media using a 12-channel pipetter to obtain the 10-fold concentration compound solution with 1% DMSO, mix well.
# Remove the 96-well assay plate from the 37° C./5% CO2 incubator, examine the cell morphology under an inverted microscope. In a cell culture hood, add 10 μl of the 10× concentration compounds solution into each well on the 96-well assay plate. All compound's dose responses are done in duplicate. The starting final concentration of the compounds is 25 μM, and DMSO final concentration 0.1%. Mark the plate with compound code(s) and concentrations. Place the 96-well assay plate into CO2 incubator for 48 hours. Add 30 μl of Stead-Glo Luciferase System (Promega) reagent to each well and mix by gentle shaking on a plate shaker for 5 minutes to allow throughout cell lysis. Measure the luminescence with Envision (Perkin Elmer) with an integration time of 2 seconds. Record and analyze the data.
# The cell culture media is DMEM complete: DMEM (Life Technologies #41965-039) supplemented with 10% FCS, 2 mM Glutamin (Life Technologies #25030-024), Penicillin (100 IU/ml)/Streptomycin (100 μg/ml) (Life Technologies #15140-114) and 1× nonessential amino acids (Life Technologies #11140-035). G418 (“Geneticin”, Life Technologies): concentrations are given as weight per volume of the original substance. Specific activity of a typical batch is ca. 700 μg/mg as stated by the manufacturer. […] Therefore each new batch of G418 should be tested individually e.g. in an electroporation experiment using different selection conditions (0.2-1 mg/ml).
row,Structure (SMILES),EC50 [µM]
1,Cn1nc(C(=O)NC2CCNCC2)c2ccc(N3CCCCCC3)nc21 [EBP697],< 3
2,CCC(CC)Oc1ccc2c(C(=O)NC3CCNCC3)n[nH]c2n1 [EBP726],< 3
3,CCC(CC)Oc1ccc2c(COCC3CCNCC3)nn(Cc3ccc(Cl)cc3)c2n1 [EBP756],< 3
4,Cc1ccc(C(=O)Nc2nn(C)c3nc(N4CCCCCC4)ccc23)s1 [EBP841],< 3
5,CC1CC(NCc2nn(C)c3nc(N4CCCCCC4)ccc23)CCN1 (centres unmarked) [EBP909],< 3
6,Cn1nc(C(=O)NC2CCN(CC3CCCCC3)CC2)c2ccc(N3CCCCCC3)nc21 [EBP987],< 3
7,Cn1nc(C(=O)NCc2cccs2)c2cc(NC3CCCCC3)cnc21 [EBP1147],< 3
8,Cn1nc(CCCN2CCCC2)c2ccc(N3CCCCCCC3)nc21 [EBP1171],< 3

# Same assay, conditions: Hepatitis C virus, Huh-7, 48 h, Table 1; Huh7 HCV 1b replicon, luciferase reporter, 48 hours; read-out: 1b EC50
row,Structure (SMILES),EC50 [µM]
1,O=C(Nc1n[nH]c2nc(N3CCCCCC3)ccc12)C1CCCNC1 (centres unmarked) [compound 681],8.5
2,CC(C)CNc1ccc2c(C(=O)NC3CCCNC3)nn(C)c2n1 (centres unmarked) [compound 684],10
3,CC(C)CN(C)c1ccc2c(C(=O)NC3CCCNC3)nn(C)c2n1 (centres unmarked) [compound 686],2.6
4,CC(C)CNc1ccc2c(C(=O)NC3CCNCC3)nn(C)c2n1 [compound 688],4.9
5,CC(C)CN(C)c1ccc2c(C(=O)NC3CCNCC3)nn(C)c2n1 [compound 690],1.2
6,Cn1nc(C(=O)NC2CCCNC2)c2ccc(N3CCCCCC3)nc21 (centres unmarked) [compound 698],3.8
7,Cn1nc(C(=O)NC2CCN(S(C)(=O)=O)CC2)c2ccc(N3CCCCCC3)nc21 [compound 699],3.8
8,Cn1nc(C(=O)NC2CCCN(S(C)(=O)=O)C2)c2ccc(N3CCCCCC3)nc21 (centres unmarked) [compound 700],3.8
9,O=C(NC1CCNCC1)c1nn(Cc2ccc(Cl)cc2)c2nc(N3CCCCCC3)ccc12 [compound 704],2.5
10,O=C(NC1CCCNC1)c1nn(Cc2ccc(Cl)cc2)c2nc(N3CCCCCC3)ccc12 (centres unmarked) [compound 705],2.7
11,O=C(N[C@H]1CCNC1)c1nn(Cc2ccc(Cl)cc2)c2nc(N3CCCCCC3)ccc12 [compound 707],3.3
12,CC1CC(NC(=O)c2nn(Cc3ccc(Cl)cc3)c3nc(N4CCCCCC4)ccc23)CCN1 (centres unmarked) [compound 708],2.4
13,O=C(NC1CCNCC1)c1nnc2n(Cc3ccc(Cl)cc3)c(N3CCCCCC3)ccc1-2 [compound 709],8.7
14,O=C(NC1CCCNC1)c1nnc2n(Cc3ccc(Cl)cc3)c(N3CCCCCC3)ccc1-2 (centres unmarked) [compound 710],7.9
15,O=C(NC1CCNC1)c1nnc2n(Cc3ccc(Cl)cc3)c(N3CCCCCC3)ccc1-2 (centres unmarked) [compound 712],8.2
16,CC1CC(NC(=O)c2nnc3n(Cc4ccc(Cl)cc4)c(N4CCCCCC4)ccc2-3)CCN1 (centres unmarked) [compound 713],6.1
17,CCC(CC)Oc1ccc2c(C(=O)NC3CCCNC3)n[nH]c2n1 (centres unmarked) [compound 725],7.6
18,O=C(NC1CCCNC1)c1n[nH]c2nc(OC3CCCCC3)ccc12 (centres unmarked) [compound 728],8
19,CC1CC(NC(=O)c2n[nH]c3nc(N4CCCCCC4)ccc23)CCN1 (centres unmarked) [compound 734],2.6

row,Structure (SMILES),EC50 [µM]
1,O=C(/C=C/c1cccnc1)Nc1nn(Cc2ccc(Cl)cc2)c2nc(N3CCCCCC3)ccc12 [compound 747],9
2,O=C(NC1CC2CCCC(C1)N2)c1nn(Cc2ccc(Cl)cc2)c2nc(N3CCCCCC3)ccc12 (centres unmarked) [compound 751],2
3,Nc1nn(Cc2ccc(Cl)cc2)c2nc(N3CCCCCC3)ccc12 [compound 759],8.6
4,Clc1ccc(Cn2nc(CNC3CCNCC3)c3ccc(N4CCCCCC4)nc32)cc1 [compound 762],2.9
5,Clc1ccc(Cn2nc(CN3CCCC3)c3ccc(N4CCCCCC4)nc32)cc1 [compound 763],8.7
6,CN(Cc1ccccc1)c1ccc2c(C(=O)NC3CCNCC3)n[nH]c2n1 [compound 777],2
7,COC[C@@H]1CCCN1c1ccc2c(C(=O)NC3CCNCC3)n[nH]c2n1 [compound 778],17
8,Cn1nc(NC(=O)c2ccncc2)c2ccc(N3CCCC3)nc21 [compound 788],9.5
9,Cn1nc(CN2CCCC2CO)c2ccc(N3CCCCCC3)nc21 (centres unmarked) [compound 791],8.5
10,CCC(CC)Oc1ccc2c(COCCN3CCCCC3)nn(Cc3ccc(Cl)cc3)c2n1 [compound 792],4.6
11,CCC(CC)Oc1ccc2c(C(=O)NC3CCCNC3)nn(Cc3ccc(Cl)cc3)c2n1 (centres unmarked) [compound 794],2.8
12,CCC(CC)Oc1ccc2c(C(=O)NC3CCNCC3)nn(Cc3ccc(Cl)cc3)c2n1 [compound 795],3.2
13,Cn1nc(CNC2CCCNC2)c2ccc(N3CCCCCC3)nc21 (centres unmarked) [compound 811],2.9
14,Cn1nc(CN2CCNCC2)c2ccc(N3CCCCCC3)nc21 [compound 812],4.6
15,O=C(CC1CCNCC1)Nc1nn(Cc2ccc(Cl)cc2)c2nc(N3CCCC3)ccc12 [compound 813],6.8
16,CCC(CC)Oc1ccc2c(C(=O)NC3CCCNC3)nn(C)c2n1 (centres unmarked) [compound 815],6.6
17,CCC(CC)Oc1ccc2c(C(=O)NC3CCNCC3)nn(C)c2n1 [compound 816],2.4
18,Cn1nc(C(=O)NC2CCNCC2)c2ccc(OC3CCCCC3)nc21 [compound 817],3.4
19,Cn1nc(C(=O)N[C@H]2CCNC2)c2ccc(N3CCCCCC3)nc21 [compound 822],4.3

row,Structure (SMILES),EC50 [µM]
1,Cn1nc(C(=O)N2CCNCC2)c2ccc(N3CCCCCC3)nc21 [compound 823],7.6
2,Cn1nc(C(=O)Nc2cccc(S(N)(=O)=O)c2)c2ccc(N3CCCCCC3)nc21 [compound 824],3.5
3,Cn1nc(C(=O)Nc2cc[nH]n2)c2ccc(N3CCCCCC3)nc21 [compound 827],3.2
4,Cn1nc(C(=O)N2CCC(N)CC2)c2ccc(N3CCCCCC3)nc21 [compound 829],8.7
5,Cn1nc(C(=O)NCc2ccccc2)c2ccc(N3CCCCCC3)nc21 [compound 830],7.3
6,Cn1nc(NC(=O)c2cccnc2Cl)c2ccc(N3CCCCCC3)nc21 [compound 832],3.3
7,Cn1nc(NC(=O)c2ccncc2Cl)c2ccc(N3CCCCCC3)nc21 [compound 833],2.9
8,Cn1nc(NC(=O)C2CCCCC2)c2ccc(N3CCCCCC3)nc21 [compound 835],2.4
9,Cn1nc(NC(=O)c2ccccc2C(F)(F)F)c2ccc(N3CCCCCC3)nc21 [compound 836],4.1
10,Cn1nc(NC(=O)c2cccnc2)c2ccc(N3CCCCCC3)nc21 [compound 838],3.8
11,Cn1nc(NC(=O)c2ccncc2)c2ccc(N3CCCCCC3)nc21 [compound 839],2.5
12,Cn1nc(NC(=O)CC2CCCNC2)c2ccc(N3CCCCCC3)nc21 (centres unmarked) [compound 843],8.3
13,Cn1nc(NC(=O)[C@H]2CC[C@@H](N)CC2)c2ccc(N3CCCCCC3)nc21 [compound 844],6.6
14,O=C(NC1CCNCC1)c1nn(CC2CCCCC2)c2nc(N3CCCCCC3)ccc12 [compound 845],2
15,O=C(NCC1CCCNC1)c1nn(Cc2ccc(Cl)cc2)c2nc(N3CCCCCC3)ccc12 (centres unmarked) [compound 850],2.5
16,CC(C)Cn1nc(C(=O)NC2CCNCC2)c2ccc(N3CCCCCC3)nc21 [compound 852],2.9
17,O=C(NC1CCNCC1)c1nn(Cc2cccc(Cl)c2)c2nc(N3CCCCCC3)ccc12 [compound 854],7.2
18,O=C(NC1CCNCC1)c1nn(CCc2ccc(Cl)cc2)c2nc(N3CCCCCC3)ccc12 [compound 855],3.7

# Same assay, conditions: Table 1; Huh7 HCV 1b replicon, luciferase reporter, 48 hours; read-out: 1b EC50
row,Structure (SMILES),EC50 [µM]
1,Cn1nc(C(=O)NC2CC3CCCC(C2)N3)c2ccc(N3CCCCCC3)nc21 (centres unmarked) [compound 831],2.7
